Columns and labels:
[1] = system: T cells; test: Cytoskeleton rearrangement: CCL21-induced actin polymerization (FITC-phalloidin, flow cytometry); type: cell-based, mouse
Method: T cells were pre-incubated in the presence or absence of CCL2 (1 ng/ml, PeproTech) for 1 hour and were then stimulated with CCL21 (SLC, 100 ng/ml, PeproTech). Cells were fixed by 3.7% formaldehyde solution (Merck) and cytoskeleton rearrangement was analyzed by flow cytometry following staining with fluorescein isothiocyanate (FITC)-phalloidin, as was previously described [Flaishon et al., J. Biol. Chem. (2001) 276: 46701-46706].
For CD151 activation leading to cytoskeletal rearrangement-T cells were pretreated with either 2 μg/ml of activating antibody specific for the extracellular domain of CD151 (Santa Cruz) or with an isotype control antibody IgG rabbit anti mouse (ImmunoResearch Labs.inc)/anti CUL1 (Santa Cruz) for 1 hour/20 hours.
For blocking CD151− T cells were pretreated for 1 hour with 10 μg/ml blocking anti-CD151 antibody (BD pharmingen) or with 10 μg/ml control antibody anti-IgG (ImmunoResearch Labs.inc)/anti KPL1 (Chemicon).
Next, a 100 ng/ml chemokine CCL21 (SLC, PeproTech) stimulation was carried out and the cells were fixed by 3.7% formaldehyde solution (Merck), permeabilized and stained with fluorescein isothiocyanate (FITC)-phalloidin, as was previously described [Flaishon et al., J. Biol. Chem. (2001) 276: 46701-46706]. Cytoskeleton rearrangement was analyzed by flow cytometry.
1×10^7 T cells were incubated in the presence or absence of CCL2 for 10 minutes, followed by stimulation with either activating anti-CD151 (Santa Cruz, 2 μg/ml) or an isotype control antibody IgG rabbit anti mouse (ImmunoResearch Labs.inc, 2 μg/ml) for 1 hour. The cells were then stimulated with CCL21 (100 ng/ml) and actin polymerization was analyzed.
Cells were fixed by 3.7% formaldehyde solution (Merck), and cytoskeleton rearrangement was analyzed by flow cytometry following staining with fluorescein isothiocyanate (FITC)-phalloidin, as was previously described [Flaishon et al. (2001), supra].

[2] = system: CD151; test: CD151 mRNA expression in T cells (DNA chip array, RT-PCR, real-time PCR); type: cell-based, mouse
Method: (§1) 1×10^7 T cells from control C57BL/6 or CCR2−/− mice were suspended in 1 ml RPMI medium containing 10% (v/v) FCS. Next, 1 ng/ml of CCL2 (PeproTech) was added to half of the tubes (the other half was kept as a control), and the tubes were placed at 37° C. for different time periods (see the results section below). After incubation, the cells were washed and used for the different experiments.
Total RNA was isolated from cells using the Tri reagent kit (Molecular Research Center, Inc). Reverse transcription was carried out using Superscript II RT (Gibco-BRL) and the primers: […]
To obtain differential expression data of the T cells following CCL2 incubation, the differences between mRNA levels in this cell population were identified by screening mouse DNA chip arrays using the Affymatrix genechip expression analysis system (mouse 430 A2.0). The system consisted of two parameters: probe array and RNA target. Probe array included approximately 20,000 murine genes and ESTs. Each gene or EST was analyzed with approximately 20 pairs of specific, unique 25 mer-oligonucleotides probe. Each probe type was located in a specific area called probe cell. Each probe cell contained millions of copies of a given probe. All probe cells together made up the probe array (Affymetrix Genechip Expression Technical Manual). RNA from CCL2 treated T cells and from control T cells was converted to cDNA and then in vitro transcribed while labeled with biotin (see methods for RNA isolation and cells separation). The target RNA was hybridized to the probe array. The hybridized probe array was stained with streptavidin phycoerythrin conjugate and scanned by the GeneArray scanner. The amount of light emitted was proportional to the bound target at each location on the probe array. The two populations were compared according to the hybridization intensity in each cell.
mRNA levels of actin and CD151 were analyzed by quantitative real-time RT-PCR using a Light-Cycler instrument (Roche Diagnostics, Mannheim, Germany). […]

[3] = system: CD151; test: CD151 cell surface expression on T cells (flow cytometry); type: cell-based, mouse; settings: CCL2 1 ng/ml
Method: Freshly isolated T cells were pre-incubated in the presence or absence of CCL2 (1 ng/ml, PeproTech) for several time periods (see the results section below). After incubation the cells were double stained with anti-CD3 (Pharmagene) and anti-CD151 (Santa Cruz) and the secondary antibody alexa goat anti rabbit (Invitrogene) was used. Expression of the stained proteins was analyzed by flow cytometry.

[4] = system: CD151/VLA4 complex; test: Co-immunoprecipitation of CD151 with β1 integrin (CD151/VLA4 complex); type: cell-based, mouse
Method: as §1
Stimulated frozen cells were lysed in lysis buffer containing: 25 mM Tris, pH 7.4; 2 mM Vanadate; 75 mM glycophosphate, pH 7.2; 2 mM EDTA; 2 mM EGTA; 10 mM NaPPi; and 0.5% NP-40, in the presence of the following protease inhibitors: 10 mg/ml Leupeptin; 10 mg/ml aprotinin; 10 mg/ml pepstatin; 10 mg/ml chymostatin (Roche); 1 mM PMSF (Sigma); and 20 mM N-etheyl-melamide (Sigma).
(§2) Protein G-Sepharose beads (GE Healthcare) were conjugated to Tyr (P) monoclonal antibody (Santa Cruz) or to anti-CD151 (Santa Cruz) for 2 hours at 4° C. followed by three washes in phosphate-buffered saline. Beads were added to the cell lysates and proteins were immunoprecipitated overnight. The protein G-bound material was washed three times with phosphate-buffered saline containing 0.1% SDS and 0.5% Nonidet P-40. Immunoprecipitates were separated by SDS-PAGE. […]

[5] = system: β-catenin; test: Detection of β-catenin phosphorylation in T cells; type: cell-based, mouse; settings: CCL2 1 ng/ml 10 minutes before activating anti-CD151 5 minutes, FIG. 4F
Method: 1×10^7 T cells were suspended in 1 ml RPMI medium containing 10% (v/v) FCS. The cells were stimulated with either 2 μg/ml anti-CD151 (Santa Cruz) or an isotype control antibody IgG rabbit anti mouse (ImmunoResearch Labs.inc). Thereafter, the cells were immediately placed at 37° C. for 5 minutes. Immediately after stimulation, the cells were fast frozen in liquid N2 and were lysed in lysis buffer containing: 25 mM Tris, pH 7.4; 2 mM Vanadate; 75 mM glycophosphate, pH 7.2; 2 mM EDTA; 2 mM EGTA; 10 mM NaPPi; and 0.5% NP-40, in the presence of the following protease inhibitors: 10 mg/ml Leupeptin; 10 mg/ml aprotinin; 10 mg/ml pepstatin; 10 mg/ml chymostatin (Roche); 1 mM PMSF (Sigma); and 20 mM N-etheyl-melamide (Sigma).
as §2, with “Cruz)” for “Cruz) or to anti-CD151 (Santa Cruz)”, “C.,” for “C.”, “SDS-PAGE. The protein bands were transferred onto a nitrocellulose membrane and probed with anti β-cat (BD Transduction Laboratories) followed by horseradish peroxidase-conjugated anti-mouse IgG (Jackson ImmunoResearch Labs, West Grove, Pa.).” for “SDS-PAGE.”

[6] = system: LFA-1; test: Laminar flow adhesion assay: LFA-1 mediated adhesion to ICAM-1 triggered by CCL21; type: cell-based; settings: mouse T cells pre-treated, FIGS. 4G-J
Method: Purified ICAM-1-Fc (R&D Systems, Minneapolis, Minn.) were coated alone or with mouse CCL21 (R&D Systems) on polystyrene plates, as previously described [Grabovsky V et al. (2000) J Exp Med. 192, 495-506; Sigal A et al. (2000) J. Immunol. 165, 442-452]. The polystyrene plates were each assembled on the lower wall of the flow chamber as previously described [Feigelson S W et al. (2001) J Biol. Chem. 276, 13891-13901]. All flow experiments were conducted at 37° C.
Mouse T cells were purified and re-suspended in HBSS++ (HBSS, Mg^2+Ca^2+) with ICAM-1-Fc or mCCL2 for 1 hr. Cells were then perfused through the flow chamber at low shear stress (0.5-0.75 dyn/cm2) for 2 min. Tethers were defined as transient or rolling if cells attached briefly (less than 2 seconds) to the substrate, and as arrests if cells immediately arrested and remained stationary for at least 5 seconds of continuous flow. To assess adhesion strengthening, post arrest resistance to detachment over time was determined. Accumulated cells were subjected to a shear stress of 5 dyn/cm^2 for 10 minutes. At the indicated time points, the number of cells that remained bound was expressed relative to T cell population originally accumulated in the first 2 minutes of the assay.

[7] = system: T lymphocyte; settings: picomolar levels of CCL2; Flaishon et al. 2008, WO 2008/012796; cited from earlier work
[8] = picomolar circulating CCL2; Flaishon et al. 2008, WO 2008/012796; cited from earlier work

Substance: CCL2: chemokine, also called Macrophage Chemotactic Protein-1 or MCP-1 (PeproTech), used at picomolar levels, 1 ng/ml
- actin polymerization elevation induced by CD151 activation ([1]; CCR2-/- T cells, CCL2 10 minutes before activating anti-CD151, FIG. 4D): not apparent
- CCL21-induced actin polymerization ([1]; control T cells, CCL2 1 ng/ml (pM levels) 1 hour, then CCL21 100 ng/ml, FIGS. 1A-B): suppressed actin polymerization
- actin polymerization elevation induced by CD151 activation ([1]; control T cells, longer CCL2 incubation (20 hours), FIG. 4E): maintained
- actin polymerization elevation induced by CD151 activation ([1]; control T cells, pM CCL2 10 minutes before activating anti-CD151 1 hour, then CCL21, FIG. 4C): completely abolished
- transcription of CD151 (RT-PCR) ([2]; CCR2-/- T cells, pM CCL2, FIG. 1D): no inhibition was observed
- differential gene expression of CD151 (DNA chip array) ([2]; T cells incubated 2 hours with CCL2): downregulated
- transcription of CD151 (RT-PCR) ([2]; control naive T cells, pM CCL2, 1, 2 or 4 hours, FIG. 1C): downregulated following 2 and 4 hour incubations
- CD151 cell surface expression ([3]; CCR2-/- T cells, FIG. 1G): no change was detected
- CD151 cell surface expression ([3]; control T cells, different time periods, FIGS. 1E-F): downregulated CD151 cell surface expression levels
- CD151/VLA4 complex (β1 integrin pulled down with CD151) ([4]; CCR2-/- T cells incubated with CCL2, FIG. 4B): no effect
- CD151/VLA4 complex (β1 integrin pulled down with CD151) ([4]; control T cells incubated with CCL2, several time periods, FIG. 4A): disappearance of the CD151/VLA4 complex
- β-catenin phosphorylation induced by CD151 activation [5]: completely abolished
- adhesion strengthening after arrest (resistance to detachment) ([6]; continuous/high shear stress): failed to remain firmly adhered
- LFA-1 activation by surface bound CCL21 (arrest/accumulation on ICAM-1) ([6]; low shear stress): minor effect
- T lymphocyte homing to peripheral lymph nodes [7]: inhibit T lymphocyte homing to peripheral lymph nodes
- progression of asthma and adjuvant arthritis [8]: attenuated progression of both asthma and adjuvant arthritis

Source: patent US20120070449A1, “METHODS OF TREATING INFLAMMATION” (Yeda Research And Development Co. Ltd., priority 2009, published 2012)
